This note sets out measurements from patent US6395260B1, “Topical cosmetic compositions comprising benzaldoximes” (Haarmann & Reimer GmbH, priority 1999, dated 2002).

Molecules are shown by their SMILES.

What is called melting point is the temperature of the solid-liquid transition. As for `ON=Cc1cc(O)c(O)c(O)c1` [Test compound 2, 3,4,5-trihydroxybenzaldoxime], the melting point is 177 °C (dec.).

For the compound `CCON=Cc1ccc(OC)c(O)c1` [Test compound 3, 3-hydroxy-4-methoxybenzaldehyde O-ethyloxime], the melting point came to 61.4 °C.

With `CCON=Cc1ccc(O)c(OCC)c1` [Test compound 4, 3-ethoxy-4-hydroxybenzaldehyde O-ethyloxime], the melting point came to 43 °C.

Take `ON=Cc1ccc(O)c(O)c1` [Test compound 5, 3,4-dihydroxybenzaldoxime]: the melting point is 143 °C (dec.).

For `COc1ccc(C=NO)cc1O` [Test compound 6, 3-hydroxy-4-methoxybenzaldoxime], the melting point was determined as 142.4 °C.

`CCON=Cc1ccc(O)c(OC)c1` [Test compound 7, 4-hydroxy-3-methoxybenzaldehyde O-ethyloxime] displayed a melting point of 31.7 °C.

As to `Cc1ccc(CON=Cc2ccc(O)c(O)c2)cc1` [Test compound 8, 3,4-dihydroxybenzaldehyde O-(4-methylbenzyl)-oxime], the melting point was 85 to 86 °C.

On to `CCOc1cc(C=NO)ccc1O` [Test compound 9, 3-ethoxy-4-hydroxybenzaldoxime], for which the melting point is 189 °C (dec.).

As to `COc1cc(C=NO)ccc1O` [Test compound 10, 4-hydroxy-3-methoxybenzaldoxime], the melting point came out at 118.2 °C.

Turning to `CCON=Cc1ccc(O)c(O)c1` [Test compound 11, 3,4-dihydroxybenzaldehyde O-ethyloxime], the melting point turned out to be 23 °C.
